Data as given in ChEMBL document CHEMBL1201862, “PubChem BioAssay data set” (2004).
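All cell lines were grown in 96-well plates and treated with compound for 48 hours. GI50 marks 50% less growth.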 Calls of active or inactive are those of the source. Cut-off read from the data, not from the text of the source: active = GI50 up to about 1.1 µM and inactive = higher.

What was measured:
Experiment in all cases: NCI-60 cell line screen, 48 h
[1] = system: NCI/ADR-RES
[2] = system: A549
[3] = system: HL-60
[4] = system: SK-MEL-28
[5] = system: NCI-H522
[6] = system: DU-145
[7] = system: OVCAR-3
[8] = system: Malme-3M
[9] = system: NCI-H226
[10] = system: UO-31
[11] = system: SF-295
[12] = system: MCF7
[13] = system: OVCAR-5
[14] = system: SK-MEL-5
[15] = system: OVCAR-8
[16] = system: K562
[17] = system: SW-620
[18] = system: LOX IMVI
[19] = system: SK-MEL-2
[20] = system: KM-20L2

SMILES: Nc1c(C(=O)Nc2ccc([As](=O)(O)O)cc2)cnc2nnnn12
- GI50 [1]: > 100 µM (inactive)
- GI50 [2]: > 100 µM (inactive)
- GI50 [3]: > 100 µM (inactive)
- GI50 [4]: > 100 µM (inactive)
- GI50 [5]: > 100 µM (inactive)
- GI50 [6]: > 100 µM (inactive)
- GI50 [7]: > 100 µM (inactive)
- GI50 [8]: > 100 µM (inactive)
- GI50 [9]: > 100 µM (inactive)
- GI50 [10]: > 100 µM (inactive)
- GI50 [11]: > 100 µM (inactive)
- GI50 [12]: > 100 µM (inactive)
- GI50 [13]: > 100 µM (inactive)
- GI50 [14]: > 100 µM (inactive)
- GI50 [15]: > 100 µM (inactive)
- GI50 [16]: > 100 µM (inactive)
- GI50 [17]: > 100 µM (inactive)
- GI50 [18]: > 100 µM (inactive)
- GI50 [19]: > 100 µM (inactive)

SMILES: CC1=C/C(=C2/N=C(N(C)C)SS2)C(C)=N1.[O-][Cl+3]([O-])([O-])O
- GI50 [2]: > 100 µM (inactive)
- GI50 [3]: > 100 µM (inactive)
- GI50 [4]: > 100 µM (inactive)
- GI50 [5]: 4.33 µM (inactive)
- GI50 [7]: > 100 µM (inactive)
- GI50 [8]: 21.8 µM (inactive)
- GI50 [9]: > 100 µM (inactive)
- GI50 [20]: > 100 µM (inactive)
- GI50 [10]: > 100 µM (inactive)
- GI50 [11]: > 100 µM (inactive)
- GI50 [13]: > 100 µM (inactive)
- GI50 [15]: > 100 µM (inactive)
- GI50 [16]: 42.1 µM (inactive)
- GI50 [17]: > 100 µM (inactive)
- GI50 [18]: 37.3 µM (inactive)

SMILES: COc1nc2c(nc(N)n2C2OC(CO)C(O)C(O)C2O)c(=O)[nH]1 (stereo not given)
- GI50 [2]: > 100 µM (inactive)
- GI50 [3]: > 100 µM (inactive)
- GI50 [4]: > 100 µM (inactive)
- GI50 [5]: > 100 µM (inactive)
- GI50 [7]: > 100 µM (inactive)
- GI50 [8]: > 100 µM (inactive)
- GI50 [9]: > 100 µM (inactive)
- GI50 [20]: > 100 µM (inactive)
- GI50 [10]: > 100 µM (inactive)
- GI50 [11]: > 100 µM (inactive)
- GI50 [14]: > 100 µM (inactive)
- GI50 [15]: > 100 µM (inactive)
- GI50 [16]: > 100 µM (inactive)
- GI50 [17]: > 100 µM (inactive)
- GI50 [18]: > 100 µM (inactive)

SMILES: CC(=O)NNc1nc(C)c(C(=O)/C=C/c2ccc(NC(C)=O)cc2)s1
- GI50 [2]: > 100 µM (inactive)
- GI50 [3]: > 100 µM (inactive)
- GI50 [4]: > 100 µM (inactive)
- GI50 [5]: > 100 µM (inactive)
- GI50 [7]: > 100 µM (inactive)
- GI50 [8]: > 100 µM (inactive)
- GI50 [20]: > 100 µM (inactive)
- GI50 [10]: > 100 µM (inactive)
- GI50 [11]: > 100 µM (inactive)
- GI50 [13]: > 100 µM (inactive)
- GI50 [14]: > 100 µM (inactive)
- GI50 [15]: > 100 µM (inactive)
- GI50 [16]: > 100 µM (inactive)
- GI50 [17]: > 100 µM (inactive)
- GI50 [18]: > 100 µM (inactive)
- GI50 [19]: > 100 µM (inactive)

SMILES: N=C(N)NS(=O)(=O)c1ccc(NC(=O)c2cccn3c(=O)c4ccccc4nc23)cc1
- GI50 [2]: 45.6 µM (inactive)
- GI50 [3]: 24.5 µM (inactive)
- GI50 [4]: 91 µM (inactive)
- GI50 [5]: 35 µM (inactive)
- GI50 [7]: > 100 µM (inactive)
- GI50 [8]: > 100 µM (inactive)
- GI50 [9]: 44.8 µM (inactive)
- GI50 [20]: 13.6 µM (inactive)
- GI50 [10]: 55.1 µM (inactive)
- GI50 [11]: 85.5 µM (inactive)
- GI50 [14]: 27 µM (inactive)
- GI50 [15]: 84.5 µM (inactive)
- GI50 [16]: 32.3 µM (inactive)
- GI50 [17]: 51.5 µM (inactive)
- GI50 [18]: 33.7 µM (inactive)

SMILES: CCCCCCCCCCCCOC(=S)NC
- GI50 [3]: 27.6 µM (inactive)
- GI50 [4]: 20 µM (inactive)
- GI50 [5]: 27.5 µM (inactive)
- GI50 [8]: 21.6 µM (inactive)
- GI50 [9]: 4.25 µM (inactive)
- GI50 [20]: 19.4 µM (inactive)
- GI50 [10]: 19 µM (inactive)
- GI50 [11]: 25.9 µM (inactive)
- GI50 [13]: 12.6 µM (inactive)
- GI50 [15]: 18.6 µM (inactive)
- GI50 [16]: 19.6 µM (inactive)
- GI50 [17]: 18.3 µM (inactive)
- GI50 [18]: 14.1 µM (inactive)
- GI50 [19]: 14.6 µM (inactive)

SMILES: CCN(CC)CCC(=O)/C=C/c1ccc(C)cc1
- GI50 [2]: 18.8 µM (inactive)
- GI50 [3]: 10.8 µM (inactive)
- GI50 [4]: 14.8 µM (inactive)
- GI50 [7]: 16.7 µM (inactive)
- GI50 [8]: 19.3 µM (inactive)
- GI50 [9]: 17.1 µM (inactive)
- GI50 [20]: 15.6 µM (inactive)
- GI50 [10]: 16.2 µM (inactive)
- GI50 [11]: 18.1 µM (inactive)
- GI50 [13]: 18.6 µM (inactive)
- GI50 [14]: 16.6 µM (inactive)
- GI50 [15]: 13.2 µM (inactive)
- GI50 [16]: 19.5 µM (inactive)
- GI50 [17]: 4.69 µM (inactive)
- GI50 [18]: 4.53 µM (inactive)

SMILES: N#CCCN(CCC#N)CCN(CCN(CCC#N)CCC#N)CCN(CCC#N)CCC#N
- GI50 [1]: > 100 µM (inactive)
- GI50 [2]: > 100 µM (inactive)
- GI50 [3]: > 100 µM (inactive)
- GI50 [4]: > 100 µM (inactive)
- GI50 [5]: > 100 µM (inactive)
- GI50 [6]: > 100 µM (inactive)
- GI50 [7]: > 100 µM (inactive)
- GI50 [8]: > 100 µM (inactive)
- GI50 [9]: > 100 µM (inactive)
- GI50 [10]: > 100 µM (inactive)
- GI50 [11]: > 100 µM (inactive)
- GI50 [12]: > 100 µM (inactive)
- GI50 [13]: > 100 µM (inactive)
- GI50 [14]: > 100 µM (inactive)
- GI50 [15]: > 100 µM (inactive)
- GI50 [16]: > 100 µM (inactive)
- GI50 [17]: > 100 µM (inactive)
- GI50 [18]: > 100 µM (inactive)
- GI50 [19]: > 100 µM (inactive)

SMILES: COC(=O)C(CC(=O)c1ccccc1)c1ccccc1NC(C)=O (stereo not given)
- GI50 [2]: > 100 µM (inactive)
- GI50 [3]: > 100 µM (inactive)
- GI50 [4]: > 100 µM (inactive)
- GI50 [5]: > 100 µM (inactive)
- GI50 [7]: > 100 µM (inactive)
- GI50 [8]: > 100 µM (inactive)
- GI50 [9]: > 100 µM (inactive)
- GI50 [20]: > 100 µM (inactive)
- GI50 [10]: 29.9 µM (inactive)
- GI50 [11]: > 100 µM (inactive)
- GI50 [13]: > 100 µM (inactive)
- GI50 [14]: > 100 µM (inactive)
- GI50 [15]: > 100 µM (inactive)
- GI50 [16]: > 100 µM (inactive)
- GI50 [17]: > 100 µM (inactive)
- GI50 [18]: > 100 µM (inactive)

SMILES: CCOC(=O)NC1C2CC(=O)C(O2)C1OCc1ccccc1 (stereo not given)
- GI50 [2]: > 100 µM (inactive)
- GI50 [3]: > 100 µM (inactive)
- GI50 [4]: > 100 µM (inactive)
- GI50 [7]: > 100 µM (inactive)
- GI50 [8]: > 100 µM (inactive)
- GI50 [9]: > 100 µM (inactive)
- GI50 [20]: > 100 µM (inactive)
- GI50 [10]: 78 µM (inactive)
- GI50 [11]: > 100 µM (inactive)
- GI50 [13]: > 100 µM (inactive)
- GI50 [14]: > 100 µM (inactive)
- GI50 [16]: > 100 µM (inactive)
- GI50 [17]: > 100 µM (inactive)
- GI50 [18]: > 100 µM (inactive)
- GI50 [19]: > 100 µM (inactive)

SMILES: O=c1cc(-c2ccccc2)[nH]c2c(Cl)cccc12
- GI50 [2]: 7.98 µM (inactive)
- GI50 [3]: 9.12 µM (inactive)
- GI50 [4]: > 100 µM (inactive)
- GI50 [7]: 24.5 µM (inactive)
- GI50 [8]: 64.9 µM (inactive)
- GI50 [9]: 9.55 µM (inactive)
- GI50 [20]: 14.4 µM (inactive)
- GI50 [10]: 34.2 µM (inactive)
- GI50 [11]: 20.1 µM (inactive)
- GI50 [14]: 5.86 µM (inactive)
- GI50 [15]: 16.6 µM (inactive)
- GI50 [16]: 2.77 µM (inactive)
- GI50 [17]: 3.86 µM (inactive)
- GI50 [18]: 9.35 µM (inactive)
- GI50 [19]: 6.97 µM (inactive)

SMILES: N#CC(C(=O)CCC(=O)Nc1ccc(Cl)cc1)c1ccccc1Cl (stereo not given)
- GI50 [2]: > 100 µM (inactive)
- GI50 [3]: > 100 µM (inactive)
- GI50 [4]: > 100 µM (inactive)
- GI50 [5]: > 100 µM (inactive)
- GI50 [7]: > 100 µM (inactive)
- GI50 [8]: > 100 µM (inactive)
- GI50 [9]: > 100 µM (inactive)
- GI50 [20]: 17.1 µM (inactive)
- GI50 [10]: > 100 µM (inactive)
- GI50 [11]: > 100 µM (inactive)
- GI50 [13]: 50.5 µM (inactive)
- GI50 [14]: > 100 µM (inactive)
- GI50 [15]: > 100 µM (inactive)
- GI50 [16]: 18.4 µM (inactive)
- GI50 [17]: > 100 µM (inactive)
- GI50 [19]: 51.6 µM (inactive)

SMILES: CCCC(=O)c1c(NOC2OCC(OC(C)=O)C(OC(C)=O)C2OC(C)=O)nc(OC)n(C)c1=O (stereo not given)
- GI50 [2]: > 100 µM (inactive)
- GI50 [3]: 0.498 µM (active)
- GI50 [4]: > 100 µM (inactive)
- GI50 [7]: > 100 µM (inactive)
- GI50 [8]: > 100 µM (inactive)
- GI50 [9]: > 100 µM (inactive)
- GI50 [20]: > 100 µM (inactive)
- GI50 [10]: > 100 µM (inactive)
- GI50 [11]: > 100 µM (inactive)
- GI50 [13]: > 100 µM (inactive)
- GI50 [14]: > 100 µM (inactive)
- GI50 [15]: > 100 µM (inactive)
- GI50 [16]: 17.4 µM (inactive)
- GI50 [17]: > 100 µM (inactive)
- GI50 [18]: > 100 µM (inactive)
